{"source": "paper PMC6070996", "about": "(Marine Drugs, 2018)", "key": {"[1]": {"tested_on": "PP1", "conditions": "cited from earlier work"}, "[2]": {"tested_on": "mice", "conditions": "cited from earlier work"}, "[3]": {"biological_target": "Chymotrypsin", "conditions": "cited from earlier work"}, "[4]": {"biological_target": "Elastase", "set-up": "method as in doi:10.1021/np960649a", "conditions": "cited from earlier work"}, "[5]": {"tested_on": "trypsin", "conditions": "cited from earlier work"}, "[6]": {"tested_on": "plasmin", "conditions": "cited from earlier work"}, "[7]": {"tested_on": "papain", "set-up": "method as in doi:10.1021/np960649a", "conditions": "cited from earlier work"}, "[8]": {"biological_target": "T1, Thrombin (Bos taurus, UniProt P00735)", "T1 construct": "purchased Sigma-Aldrich T4648", "set-up": "method as in doi:10.1021/np960649a", "conditions": "cited from earlier work"}, "[9]": {"tested_on": "human hepatoma cell line Huh7", "set-up": "method as in PMID 27428998", "conditions": "cited from earlier work"}, "[10]": {"tested_on": "zebrafish eleuthero-embryos", "set-up": "method as in PMID 24561424", "conditions": "genes of DNA damage recognition and repair, circadian rhythm; cited from earlier work"}, "[11]": {"biological_target": "T2, elastase from porcine pancreas (Sus scrofa, UniProt P00772)", "T2 construct": "purchased Sigma-Aldrich E0258; host or cells: porcine pancreas", "T2 sequence (P00772 27-266)": "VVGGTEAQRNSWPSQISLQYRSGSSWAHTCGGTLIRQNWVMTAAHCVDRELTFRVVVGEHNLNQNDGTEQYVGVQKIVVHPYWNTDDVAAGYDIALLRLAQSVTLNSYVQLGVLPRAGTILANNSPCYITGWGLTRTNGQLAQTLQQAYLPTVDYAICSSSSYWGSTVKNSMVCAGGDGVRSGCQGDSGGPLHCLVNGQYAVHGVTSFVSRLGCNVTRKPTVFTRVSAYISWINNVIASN", "assay": "elastase inhibition assay", "type": "biochemical", "set-up": "key: - not active; */** small/medium activity; */** small/medium activity", "conditions": "highest concentration 45.4 μg/mL"}, "[12]": {"biological_target": "T1, Thrombin", "assay": "thrombin inhibition assay", "type": "biochemical", "set-up": "key: - not active; */** small/medium activity; */** small/medium activity", "conditions": "highest concentration 45.4 μg/mL"}, "[13]": {"biological_target": "T3, protein phosphatase 1 (PP1) (Oryctolagus cuniculus, UniProt P62139)", "T3 construct": "purchased England Biolabs, Hitchin, UK (New England Biolabs) 754S", "T3 sequence (P62139 whole entry)": "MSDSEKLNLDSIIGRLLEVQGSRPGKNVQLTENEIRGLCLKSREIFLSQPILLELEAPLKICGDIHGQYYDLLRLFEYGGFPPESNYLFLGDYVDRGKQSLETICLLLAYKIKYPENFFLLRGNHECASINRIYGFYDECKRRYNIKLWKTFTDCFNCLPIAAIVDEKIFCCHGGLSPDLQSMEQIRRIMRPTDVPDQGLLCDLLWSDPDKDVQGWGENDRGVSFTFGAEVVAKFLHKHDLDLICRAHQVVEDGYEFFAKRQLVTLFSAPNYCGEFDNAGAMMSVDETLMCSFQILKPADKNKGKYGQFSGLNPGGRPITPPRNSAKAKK", "assay": "protein phosphatase 1 inhibition assay", "type": "biochemical", "set-up": "key: - not active; */** small/medium activity; */** small/medium activity", "conditions": "highest concentration 45.4 μg/mL"}, "[14]": {"tested_on": "human kallikrein", "set-up": "method as in PMID 20405925", "conditions": "cited from earlier work"}, "[15]": {"tested_on": "factor XIa", "set-up": "method as in PMID 20405925", "conditions": "cited from earlier work"}, "[16]": {"tested_on": "small crustaceans", "set-up": "method as in doi:10.2216/i0031-8884-35-6S-111.1, PMID 20405925, PMID 12662108", "conditions": "cited from earlier work"}, "[17]": {"tested_on": "isolated rat hepatocytes", "set-up": "method as in doi:10.2216/i0031-8884-35-6S-111.1", "conditions": "cited from earlier work"}, "[18]": {"tested_on": "Daphnia magna", "conditions": "compared with microcystin-LR; cited from earlier work"}, "[19]": {"tested_on": "NCI H460 lung cancer cells", "set-up": "method as in PMID 18163584", "conditions": "cited from earlier work"}, "[20]": {"tested_on": "neuro-2A neuroblastoma cells", "set-up": "method as in PMID 18163584", "conditions": "cited from earlier work"}}}
{"compound": "CC[C@H](C)[C@H](NC(=O)[C@H](O)Cc1ccc(O)cc1)C(=O)N[C@@H](CCO)C(=O)N[C@@H]1C(=O)N[C@@H](CCO)C(=O)N[C@H]2CC[C@@H](O)N(C2=O)[C@@H](Cc2ccccc2)C(=O)N(C)[C@@H](Cc2ccc(O)cc2)C(=O)N[C@@H](C(C)C)C(=O)O[C@@H]1C", "note": "[Nostocyclin, [Thr+Hse+Ahp+Phe+MeTyr+Val]Hse+Ile+Hpla]", "values": [{"measurement": "activity against protein phosphatases", "setting": "[1]; protein phosphatases", "result": "weak activity"}, {"measurement": "IC50", "setting": "[1]; read-out: Enzyme Inhibition PP1 IC50", "result": 64, "unit": "µM"}, {"measurement": "toxicity in mouse bioassay", "setting": "[2]", "result": "not toxic"}]}
{"compound": "CC[C@H](C)[C@@H]1NC(=O)[C@H](Cc2ccc(O)cc2)N(C)C(=O)[C@H]([C@@H](C)CC)N2C(=O)C(CCC2O)NC(=O)[C@H](CC(C)C)NC(=O)[C@@H]2C(OC1=O)C(C)CN2C(=O)[C@H](CCC(N)=O)NC(C)=O", "note": "(stereo partly shown) [Nostopeptin B, [Hmp+Leu+Ahp+Ile+MeTyr+Ile]Gln+Ac]", "values": [{"measurement": "Enzyme Inhibition Chymotrypsin IC50", "setting": "[3]", "result": 1.6, "unit": "µg/mL"}, {"measurement": "Enzyme Inhibition Elastase IC50", "setting": "[4]", "result": 11.0, "unit": "µg/mL"}, {"measurement": "activity against trypsin", "setting": "[5]", "result": "inactive"}, {"measurement": "activity against plasmin", "setting": "[6]", "result": "inactive"}, {"measurement": "activity against papain", "setting": "[7]", "result": "inactive"}, {"measurement": "activity against thrombin", "setting": "[8]", "result": "inactive"}]}
{"compound": "CCCCCC(=O)N[C@@H](CCC(=O)O)C(=O)N[C@@H]1C(=O)N[C@@H](CCCNC(=N)N)C(=O)N[C@H]2CC[C@@H](O)N(C2=O)[C@@H](Cc2ccccc2)C(=O)N(C)[C@@H](Cc2ccc(O)cc2)C(=O)N[C@@H](C(C)C)C(=O)O[C@@H]1C", "note": "[CP1020, cyanopeptolin 1020]", "values": [{"measurement": "anti-inflammatory effects in Huh7", "setting": "[9]", "result": "induction of anti-inflammatory effects"}, {"measurement": "transcriptional alterations of genes in zebrafish eleuthero-embryos", "setting": "[10]", "result": "led to transcriptional alterations of genes"}]}
{"compound": "CCCCCC(=O)N[C@@H](CC(=O)O)C(=O)N[C@@H]1C(=O)N[C@@H](CCCNC(=N)N)C(=O)N[C@H]2CC[C@@H](O)N(C2=O)[C@@H](Cc2ccccc2)C(=O)N(C)[C@@H](CCc2ccc(O)cc2)C(=O)N[C@@H](C(C)C)C(=O)O[C@@H]1C", "note": "[CP 1020, [Thr+Arg+Ahp+Phe+MeHty+Val]Asp+HA]", "values": [{"measurement": "Enzyme Inhibition Elastase (activity class)", "setting": "[11]", "result": "-"}, {"measurement": "Enzyme Inhibition Thrombin (activity class)", "setting": "[12]", "result": "-"}, {"measurement": "Enzyme Inhibition Protein Phosphatase 1 (activity class)", "setting": "[13]", "result": "-"}, {"measurement": "activity against chymotrypsin", "setting": "[3]", "result": "active"}, {"measurement": "inhibition of trypsin", "setting": "[5]", "result": "Picomolar inhibition"}, {"measurement": "activity against plasmin", "setting": "[6]", "result": "active"}, {"measurement": "activity against human kallikrein", "setting": "[14]", "result": "active"}, {"measurement": "activity against factor XIa", "setting": "[15]", "result": "active"}, {"measurement": "acute effects in small crustaceans", "setting": "[16]", "result": "induced acute effects"}]}
{"compound": "CC[C@H](C)[C@@H]1NC(=O)[C@H](Cc2ccccc2)N(C)C(=O)[C@H]([C@@H](C)CC)N2C(=O)[C@H](CC[C@H]2O)NC(=O)[C@H](CCCN=C(N)N)NC(=O)[C@@H](NC(=O)[C@@H](COS(=O)(=O)O)OS(=O)(=O)O)[C@@H](C)OC1=O", "note": "[CP SS]", "values": [{"measurement": "inhibition of plasmin", "setting": "[6]", "result": "inhibited plasmin"}, {"measurement": "toxicity to isolated rat hepatocytes", "setting": "[17]", "result": "not toxic"}, {"measurement": "acute effects in small crustaceans", "setting": "[16]", "result": "induced acute effects"}, {"measurement": "toxicity against Daphnia magna", "setting": "[18]", "result": "even higher than for microcystin-LR"}]}
{"compound": "CCCC(=O)N[C@@H](CCC(N)=O)C(=O)N[C@@H]1C(=O)N[C@@H](CCCNC(N)=O)C(=O)N[C@H]2CC[C@@H](O)N(C2=O)[C@@H]([C@@H](C)CC)C(=O)N(C)[C@@H](Cc2ccc(OC)c(Br)c2)C(=O)N[C@@H](C(C)C)C(=O)O[C@@H]1C", "note": "[Symplocamide A]", "values": [{"measurement": "IC50", "setting": "[3]; read-out: chymotrypsin IC50", "result": 0.38, "unit": "µM"}, {"measurement": "IC50", "setting": "[5]", "result": 80.2, "unit": "µM"}, {"measurement": "cytotoxic activity to NCI H460 lung cancer cells", "setting": "[19]", "result": "cytotoxic activity"}, {"measurement": "cytotoxic activity to neuro-2A neuroblastoma cells", "setting": "[20]", "result": "cytotoxic activity"}]}
{"compound": "CCCC(=O)N[C@@H](CCC(N)=O)C(=O)N1CC(C)C2OC(=O)[C@H]([C@@H](C)CC)NC(=O)[C@H](Cc3ccc(O)cc3)N(C)C(=O)[C@H]([C@@H](C)CC)N3C(=O)C(CCC3O)NC(=O)[C@H](CC(C)C)NC(=O)[C@H]21", "note": "(stereo partly shown) [Nostopeptin A, [Hmp+Leu+Ahp+Ile+MeTyr+Ile]Gln+BA]", "values": [{"measurement": "Enzyme Inhibition Chymotrypsin IC50", "setting": "[3]", "result": 1.4, "unit": "µg/mL"}, {"measurement": "Enzyme Inhibition Elastase IC50", "setting": "[4]", "result": 1.3, "unit": "µg/mL"}, {"measurement": "activity against trypsin", "setting": "[5]", "result": "inactive"}, {"measurement": "activity against plasmin", "setting": "[6]", "result": "inactive"}, {"measurement": "activity against papain", "setting": "[7]", "result": "inactive"}, {"measurement": "activity against thrombin", "setting": "[8]", "result": "inactive"}]}
